Reference: patent US6488909B1, “Chelating agents as well as their tricarbonyl complexes with technetium and rhenium” (Schering Aktiengesellschaft, priority 1998, dated 2002)

Key:
[1] = Stability study: histidine challenge, radiochemical composition by HPLC on RP18 column; assay type: physicochemical; settings: stirred 1 hour at 50° C.
Description: (§1) The complexes are stable, so that at room temperature, no exchange of chelating agents for histidine is carried out. The. chelates and tricarbonyl-Tc-99m and Re-tricarbonyl complexes that are described in this invention are thus clearly better suited for diagnostic and therapeutic purposes than the previously known systems. A special advantage of the compounds according to the invention consists in the fact that their syntheses can be directed without using sulfur protective groups. This makes their synthesis very simple, and in addition, such compounds that are described according to the invention in particular offer the advantage that after radiochemical labeling, no further foreign molecules are contained in the solutions that are to be administered intravenously for radiodiagnosis or radiotherapy. Such foreign molecules frequently disrupt the biodistribution of the radiopharmaceutical agent and can adversely affect the diagnostic information content of the SPECT imaging. In addition, the labelings on such ligands or their coupling products can be performed on substances that accumulate selectively on diseased tissues under very mild conditions. […]

[2] = Incubation of the Tc-99m-tricarbonyl complex in serum; assay type: in vitro ADME; settings: 26 hours of incubation in serum
Description: as §1

Substance | radiochemical composition (HPLC chromatogram) after histidine challenge ([1]; 20 mg of histidine) | decomposition products after incubation in serum [2] | radiochemical composition (HPLC chromatogram) after histidine challenge ([1]; 10 mg of histidine)
Tc-99m-Tricarbonyl Complex of {2-(1H-pyrazol1-yl)-ethylimino}-diacetic Acid-monopropylamide [Example 7b] | unchanged | – | –
Tc-99m-Tricarbonyl complex of N-(hydroxycarboxy-methyl)-N-(N′-propyl-carbamido-methyl)-S-ethyl-2-mercaptoethylamine [Example 2b] | – | no decomposition products | unchanged
